In patent US4978751A, “Low-calorie sweeteners of fructosyl oligosaccharides and the food or dietetic products or drinks containing them” (Roussel-Ulcaf, priority 1988, dated 1990):

Columns and labels:
in vitro [1] = format: in vitro ADME; details: human, jejunal mucous homogenate
Protocol: (§1) The preparation is identical to that given in Example 2, paragraph 2.1. The jejunal mucous (about 40 mg) is homogenized in the presence of a 0.9% aqueous solution of NaCl (weight/volume) using a "Polytron" type homogenizer. The homogenate is then brought to 12 ml (with the 0.9% solution of NaCl). The reaction mixture containing 2 ml of fructosyl oligosaccharide solution and 2 ml of homogenate is incubated for 24 hours at 37° C. under magnetic agitation. Samples are taken at regular intervals and the intestinal enzymes are thermally inactivated. A parallel test is carried out on a control solution containing saccharose. […] [formula]

[2] = tested on: homogenate of human jejunal mucous; experiment: in vitro; format: in vitro ADME; details: 0 min
Protocol: as §1

in vitro [3] = format: in vitro ADME; details: rat, jejunum homogenate, pH 6
Protocol: (§2) Then the products are dissolved in a 0.05M sodium phosphate (buffer pH 6.0), so as to have a molar concentration of […]. […] The reaction mixture containing 2 ml of fructosyl oligosaccharide solution and 2 ml of homogenate is incubated for 24 hours at 37° C., under magnetic agitation. Samples are taken at regular intervals, and the intestinal enzymes are thermally inactivated. A parallel test is carried out on a control solution containing saccharose.

[4] = tested on: homogenate of the jejunum of a rat; experiment: in vitro; format: in vitro ADME; details: 0 min, pH 6
Protocol: as §2

[5] = tested on: alpha amylase from the pancreas of a pig; experiment: Hydrolysis test with alpha amylase of the pancreas of a pig; details: substrate 3 g/liter, pH 7.0, 19 units enzyme, 2 hours at 37° C.
Protocol: The product is then dissolved is a 0.1M sodium phosphate buffer, (pH 7.0), so as to obtain a final concentration of 3 g/liter of fructosyl oligosaccharide. A mixture containing 2 ml of fructosyl oligosaccharide solution (prepared as above in 1.1) and 19 units of alpha amylase from the pancreas of a pig (SIGMA Ref […]) is incubated for 2 hours at 37° C. The reaction is stopped by heating. The glucose which has appeared is measured by the enzymatic method with glucose oxidase/peroxidase (Boehringer test Ref. 124036). A control test is carried out with maltodextrins, type glucidex 21 (Societe Roquette, France). The results are given in micromoles of glucose formed per enzyme unit and per hour.

in vitro [6] = details: rat, jejunum homogenate, pH 6
Protocol: (§3) 5 cm of jejunum is removed from a male Sprague Dawley rat (previously put on a diet for 25 hours) and rinsed with a solution of physiological serum.
(§4) The jejunum (weighing about 150 mg) is pulverized in the presence of 0.9% NaCl (w/v) using a "Polytron" type homogenizer then the pulverized product is brought to 10 ml (with 0.9% NaCl solution).
(§5) The reaction mixture containing 2 ml of fructosyl oligosaccharide solution and 2 ml of homogenate is incubated for 24 hours at 37° C., under magnetic agitation.
(§6) In a second series of tests, the evolution of the composition of the fructosyl oligosaccharide is followed over a period of time by inverse plane HPLC (Nucleosil C18 column--eluent: water), the control sugar still being saccharose.

[7] = tested on: homogenate of the jejunum of a rat; experiment: in vitro; details: 0 min, pH 6
Protocol: as §3, §4, §5, §6

[8] = tested on: alpha amylase of human saliva; experiment: Hydrolysis test with alpha amylase of human saliva; format: in vitro ADME; details: substrate 3 g/liter, pH 7.0, 17.8 units enzyme, 2 hours at 37° C.
Protocol: After 2 hours, the reaction is stopped by heating.

metabolised at 10 h (in vitro [1]) | metabolised at 24 h (in vitro [1]) | DH % (degree of hydrolysis) [2] | metabolised at 8.5 h (in vitro [3]) | metabolised at 17.5 h (in vitro [3]) | metabolised at 24 h (in vitro [3]) | DH % (degree of hydrolysis) [4] | Activity of the alpha amylase from the pancreas of a pig [5] | remaining at 8.5 h (in vitro [6]) | remaining at 24 h (in vitro [6]) | Composition in carbohydrate %: Cellobiofructose [7] | Activity of the alpha amylase of human saliva [8] | Composition in carbohydrate %: Gentiobiofructose [7] | Composition in carbohydrate %: Saccharose [7] | SMILES
0% | 0% | 0% | 0% | 3.7% | 5.4% | 0% | 0 micromoles of glucose formed p | 97% | 93.6% | 100% | 0 micromoles of glucose formed p |  |  | OC[C@H]1O[C@@](CO)(O[C@H]2O[C@H](CO)[C@@H](O[C@@H]3O[C@H](CO)[C@@H](O)[C@H](O)[C@H]3O)[C@H](O)[C@H]2O)[C@@H](O)[C@@H]1O [Cellobiofructose, cellobiofructose]
0% | 0% | 0% | 0% | 0.4% | 0.4% | 0% | 0 micromoles of glucose formed p | 100% | 99.6% |  | 0 micromoles of glucose formed p | 100% |  | OC[C@H]1O[C@@](CO)(O[C@H]2O[C@H](CO[C@@H]3O[C@H](CO)[C@@H](O)[C@H](O)[C@H]3O)[C@@H](O)[C@H](O)[C@H]2O)[C@@H](O)[C@@H]1O [Gentiobiofructose, gentiobiofructose]
57.1% | 88% | 0% | 57.6% | 66.7% | 92.7% | 0% |  |  | 4% |  |  |  | 100% | OC[C@H]1O[C@@](CO)(O[C@H]2O[C@H](CO)[C@@H](O)[C@H](O)[C@H]2O)[C@@H](O)[C@@H]1O [Saccharose, saccharose, reference compound]
